Measurements from patent publication US20070117770A1, “Human ribosomal DNA (rDNA) and ribosomal RNA (rRNA) nucleic acids and uses thereof” (Cylene Pharmaceuticals, Inc., priority 2005, published 2007).

Experiments:
[1] = tested on: HCT116 cells; assay: Protein synthesis (3H-methionine incorporation); assay type: cell-based; conditions: at the tested concentrations
Experimental: Effects of compound A-1 and compound B-1 on DNA synthesis, RNA synthesis and protein synthesis were determined in HCT116 cells. HCT116 cells were plated overnight at 100,000 cells per mL. Next day cells were treated with increasing amounts of either compound A-1 or compound B-1 followed by one hour incubation with BrdU label (from a BrdU Cell proliferation Assay Kit, Calbiochem) to monitor DNA synthesis; […] of ^3H-uridine to monitor total RNA synthesis; […] of ^3H-methionine to monitor protein synthesis or plain media to monitor RNA Polymerase II-dependent RNA synthesis. DNA synthesis was assessed using a BrdU-ELISA (BrdU Cell proliferation Assay Kit, Calbiochem). To measure total RNA synthesis, total RNA from treated cells was isolated with a RNease kit (QIAGEN), levels of total RNA were assessed with Ribogreen reagent (Invitrogen) and the newly synthesized tritiated RNA was measured in a scintillation Counter (Perkin Elmer). To measure effects on protein synthesis, cells were lysed in a RIPA buffer, and total protein was precipitated with 10% TCA on a glass-filters. Newly synthesized tritiated protein was measured in a scintillation Counter (Perkin Elmer). Effects of drugs on […] RNA synthesis were assessed by monitoring levels of a c-myc mRNA, which has a relatively short half-life of approximately 30 minutes, by Taqman qRT-PCR (ABI).

[2] = molecular target: MAPK2(m) (Mus musculus, UniProt P63085); assay: Protein kinase inhibition assay; assay type: biochemical; conditions: read-out: percent residual activity of MAPK2(m)
Experimental: (§1) Certain compounds were tested for activity in protein kinase inhibition assays. All substrates were dissolved and diluted to working stocks in de-ionized water, apart from histone H1 (10× working stock in 20 mM MOPS pH 7.0), PDKtide (10× working stock in 50 mM Tris pH 7.0) ATF2 (which is typically stored at a 20× working stock in 50 mM Tris pH 7.5, 150 mM NaCl, 0.1 mM EGTA, 0.03% Brij-35, 50% glycerol, 1 mM benzamidine, 0.2 mM PMSF and 0.1% R-mercaptoethanol), KKLNRTLSFAEPG (SEQ ID NO:203) and RRRLSFAEPG (SEQ ID NO:204) (50 mM HEPES pH 7.4) and GGEEEEYFELVKKKK (SEQ ID NO:205) (20 mM MOPS pH 7.0). All kinases were pre-diluted to a 10× working concentration prior to addition into the assay. The composition of the dilution buffer for each kinase is detailed below.
In a final reaction volume of 25 μl, MAPK2 (m) (5-10 mU) is incubated with 25 mM Tris pH 7.5, 0.02 mM EGTA, 0.33 mg/ml myelin basic protein, 10 mM MgAcetate and [gamma-33P-ATP] (specific activity approx. 500 cpm/pmol, concentration as required). The reaction is initiated by the addition of the MgATP mix. After incubation for 40 minutes at room temperature, the reaction is stopped by the addition of 5 μl of a 3% phosphoric acid solution. 10 μpl of the reaction is then spotted onto a P30 filtermat and washed three times for 5 minutes in 75 mM phosphoric acid and once in methanol prior to drying and scintillation counting.

[3] = molecular target: EphB4(h) (Homo sapiens, UniProt P54760); assay: Protein kinase inhibition assay; assay type: biochemical; conditions: read-out: percent residual activity of EphB4(h)
Sequence of EphB4(h) (P54760 16-987): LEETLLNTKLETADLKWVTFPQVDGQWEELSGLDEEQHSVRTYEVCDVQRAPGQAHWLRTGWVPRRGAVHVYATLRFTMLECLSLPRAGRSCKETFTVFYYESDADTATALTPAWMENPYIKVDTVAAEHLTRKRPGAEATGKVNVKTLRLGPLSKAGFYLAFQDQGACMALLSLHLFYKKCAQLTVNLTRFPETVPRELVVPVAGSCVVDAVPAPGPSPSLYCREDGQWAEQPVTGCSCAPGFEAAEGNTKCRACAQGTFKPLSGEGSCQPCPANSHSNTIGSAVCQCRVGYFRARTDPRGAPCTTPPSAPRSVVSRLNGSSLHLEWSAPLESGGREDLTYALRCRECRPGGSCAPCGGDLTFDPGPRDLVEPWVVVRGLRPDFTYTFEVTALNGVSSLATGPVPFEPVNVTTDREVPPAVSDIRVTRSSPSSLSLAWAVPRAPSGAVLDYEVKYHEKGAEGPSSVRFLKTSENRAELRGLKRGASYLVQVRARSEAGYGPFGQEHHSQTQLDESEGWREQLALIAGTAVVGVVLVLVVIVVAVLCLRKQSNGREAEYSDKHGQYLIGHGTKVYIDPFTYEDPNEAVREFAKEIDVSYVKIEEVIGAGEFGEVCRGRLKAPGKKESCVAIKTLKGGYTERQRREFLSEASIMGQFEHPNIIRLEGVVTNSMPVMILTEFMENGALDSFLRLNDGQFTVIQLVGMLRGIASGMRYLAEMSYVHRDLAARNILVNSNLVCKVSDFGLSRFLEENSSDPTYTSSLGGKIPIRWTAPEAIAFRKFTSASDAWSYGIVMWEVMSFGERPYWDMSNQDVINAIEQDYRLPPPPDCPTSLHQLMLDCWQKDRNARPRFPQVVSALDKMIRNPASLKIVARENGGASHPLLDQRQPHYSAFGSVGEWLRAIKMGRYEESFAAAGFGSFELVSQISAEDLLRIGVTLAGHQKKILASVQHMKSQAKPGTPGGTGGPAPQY
Experimental: as §1
(§2) In a final reaction volume of 25 μl, EphB4 (h) (5-10 mU) is incubated with 8 mM MOPS pH 7.0, 0.2 mM EDTA, 10 mM MnCl2, 0.1 mg/ml poly(Glu, Tyr) 4:1, 10 mM MgAcetate and [gamma-33P-ATP] (specific activity approx. 500 cpm/pmol, concentration as required). The reaction is initiated by the addition of the MgATP mix. After incubation for 40 minutes at room temperature, the reaction is stopped by the addition of 5 μl of a 3% phosphoric acid solution. 10 μl of the reaction is then spotted onto a Filtermat A and washed three times for 5 minutes in 75 mM phosphoric acid and once in methanol prior to drying and scintillation counting.

[4] = molecular target: Flt1(h) (Homo sapiens, UniProt P17948); assay: Protein kinase inhibition assay; assay type: biochemical; conditions: read-out: percent residual activity of Flt1(h)
Sequence of Flt1(h) (P17948 27-1338): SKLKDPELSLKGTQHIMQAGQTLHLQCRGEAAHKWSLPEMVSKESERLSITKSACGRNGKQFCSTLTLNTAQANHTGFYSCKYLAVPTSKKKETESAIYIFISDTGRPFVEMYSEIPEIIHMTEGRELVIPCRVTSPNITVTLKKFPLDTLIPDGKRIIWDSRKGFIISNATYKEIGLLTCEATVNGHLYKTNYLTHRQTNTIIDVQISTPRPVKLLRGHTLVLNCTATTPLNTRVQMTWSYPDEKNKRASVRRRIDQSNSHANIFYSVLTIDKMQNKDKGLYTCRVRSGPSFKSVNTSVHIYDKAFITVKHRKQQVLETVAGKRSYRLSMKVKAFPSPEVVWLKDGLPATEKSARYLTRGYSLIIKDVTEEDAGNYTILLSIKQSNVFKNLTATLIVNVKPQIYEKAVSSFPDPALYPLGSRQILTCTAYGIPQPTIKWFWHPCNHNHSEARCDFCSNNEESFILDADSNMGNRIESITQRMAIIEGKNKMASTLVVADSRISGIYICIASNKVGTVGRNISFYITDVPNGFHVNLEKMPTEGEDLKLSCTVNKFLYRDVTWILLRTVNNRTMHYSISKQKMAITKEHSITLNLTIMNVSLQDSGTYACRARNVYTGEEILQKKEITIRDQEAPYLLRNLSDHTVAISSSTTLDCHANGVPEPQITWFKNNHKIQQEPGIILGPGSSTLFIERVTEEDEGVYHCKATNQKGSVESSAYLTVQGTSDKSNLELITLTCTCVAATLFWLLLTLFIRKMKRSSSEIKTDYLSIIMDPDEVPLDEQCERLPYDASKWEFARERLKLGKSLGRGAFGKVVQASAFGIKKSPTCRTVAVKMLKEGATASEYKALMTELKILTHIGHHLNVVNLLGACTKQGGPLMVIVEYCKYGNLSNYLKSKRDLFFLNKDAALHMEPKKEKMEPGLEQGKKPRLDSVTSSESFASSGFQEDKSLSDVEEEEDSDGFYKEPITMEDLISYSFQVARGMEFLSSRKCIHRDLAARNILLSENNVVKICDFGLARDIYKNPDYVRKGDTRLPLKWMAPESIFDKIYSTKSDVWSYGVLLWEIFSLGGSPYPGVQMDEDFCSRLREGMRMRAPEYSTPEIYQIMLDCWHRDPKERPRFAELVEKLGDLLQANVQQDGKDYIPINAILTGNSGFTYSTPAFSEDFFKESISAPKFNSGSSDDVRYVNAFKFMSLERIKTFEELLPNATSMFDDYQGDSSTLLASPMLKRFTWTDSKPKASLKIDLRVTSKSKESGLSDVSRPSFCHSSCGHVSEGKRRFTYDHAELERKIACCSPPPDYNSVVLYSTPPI
Experimental: as §1
as §2, with “Flt1” for “EphB4”, “250 μM KKKSPGEYVNIEFG (SEQ ID NO:207),” for “10 mM MnCl2, 0.1 mg/ml poly(Glu, Tyr) 4:1,”, “P30 filtermat” for “Filtermat A”

[5] = molecular target: PKBα(h) (Homo sapiens, UniProt P31749); assay: Protein kinase inhibition assay; assay type: biochemical; conditions: read-out: percent residual activity of PKBα(h)
Sequence of PKBα(h) (P31749 whole entry): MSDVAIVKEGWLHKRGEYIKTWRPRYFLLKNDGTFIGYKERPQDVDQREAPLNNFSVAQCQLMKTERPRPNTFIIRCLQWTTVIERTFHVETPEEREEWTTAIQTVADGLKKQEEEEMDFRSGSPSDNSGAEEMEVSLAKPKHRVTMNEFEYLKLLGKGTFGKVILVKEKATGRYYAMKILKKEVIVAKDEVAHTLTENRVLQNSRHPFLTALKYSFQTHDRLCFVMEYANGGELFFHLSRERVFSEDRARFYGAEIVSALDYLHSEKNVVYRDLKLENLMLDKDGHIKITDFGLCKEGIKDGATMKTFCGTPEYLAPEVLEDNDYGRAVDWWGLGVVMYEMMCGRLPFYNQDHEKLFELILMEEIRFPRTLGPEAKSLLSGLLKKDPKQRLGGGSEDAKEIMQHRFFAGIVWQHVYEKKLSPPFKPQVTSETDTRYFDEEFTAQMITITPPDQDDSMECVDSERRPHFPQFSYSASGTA
Experimental: as §1
as §2, with “PKBα” for “EphB4”, “30 μM GRPRTSSFAEGKK (SEQ ID NO:232),” for “10 mM MnCl2, 0.1 mg/ml poly(Glu, Tyr) 4:1,”, “P30 filtermat” for “Filtermat A”

[6] = molecular target: Ros(h) (Homo sapiens, UniProt P08922); assay: Protein kinase inhibition assay; assay type: biochemical; conditions: read-out: percent residual activity of Ros(h)
Sequence of Ros(h) (P08922 28-2347): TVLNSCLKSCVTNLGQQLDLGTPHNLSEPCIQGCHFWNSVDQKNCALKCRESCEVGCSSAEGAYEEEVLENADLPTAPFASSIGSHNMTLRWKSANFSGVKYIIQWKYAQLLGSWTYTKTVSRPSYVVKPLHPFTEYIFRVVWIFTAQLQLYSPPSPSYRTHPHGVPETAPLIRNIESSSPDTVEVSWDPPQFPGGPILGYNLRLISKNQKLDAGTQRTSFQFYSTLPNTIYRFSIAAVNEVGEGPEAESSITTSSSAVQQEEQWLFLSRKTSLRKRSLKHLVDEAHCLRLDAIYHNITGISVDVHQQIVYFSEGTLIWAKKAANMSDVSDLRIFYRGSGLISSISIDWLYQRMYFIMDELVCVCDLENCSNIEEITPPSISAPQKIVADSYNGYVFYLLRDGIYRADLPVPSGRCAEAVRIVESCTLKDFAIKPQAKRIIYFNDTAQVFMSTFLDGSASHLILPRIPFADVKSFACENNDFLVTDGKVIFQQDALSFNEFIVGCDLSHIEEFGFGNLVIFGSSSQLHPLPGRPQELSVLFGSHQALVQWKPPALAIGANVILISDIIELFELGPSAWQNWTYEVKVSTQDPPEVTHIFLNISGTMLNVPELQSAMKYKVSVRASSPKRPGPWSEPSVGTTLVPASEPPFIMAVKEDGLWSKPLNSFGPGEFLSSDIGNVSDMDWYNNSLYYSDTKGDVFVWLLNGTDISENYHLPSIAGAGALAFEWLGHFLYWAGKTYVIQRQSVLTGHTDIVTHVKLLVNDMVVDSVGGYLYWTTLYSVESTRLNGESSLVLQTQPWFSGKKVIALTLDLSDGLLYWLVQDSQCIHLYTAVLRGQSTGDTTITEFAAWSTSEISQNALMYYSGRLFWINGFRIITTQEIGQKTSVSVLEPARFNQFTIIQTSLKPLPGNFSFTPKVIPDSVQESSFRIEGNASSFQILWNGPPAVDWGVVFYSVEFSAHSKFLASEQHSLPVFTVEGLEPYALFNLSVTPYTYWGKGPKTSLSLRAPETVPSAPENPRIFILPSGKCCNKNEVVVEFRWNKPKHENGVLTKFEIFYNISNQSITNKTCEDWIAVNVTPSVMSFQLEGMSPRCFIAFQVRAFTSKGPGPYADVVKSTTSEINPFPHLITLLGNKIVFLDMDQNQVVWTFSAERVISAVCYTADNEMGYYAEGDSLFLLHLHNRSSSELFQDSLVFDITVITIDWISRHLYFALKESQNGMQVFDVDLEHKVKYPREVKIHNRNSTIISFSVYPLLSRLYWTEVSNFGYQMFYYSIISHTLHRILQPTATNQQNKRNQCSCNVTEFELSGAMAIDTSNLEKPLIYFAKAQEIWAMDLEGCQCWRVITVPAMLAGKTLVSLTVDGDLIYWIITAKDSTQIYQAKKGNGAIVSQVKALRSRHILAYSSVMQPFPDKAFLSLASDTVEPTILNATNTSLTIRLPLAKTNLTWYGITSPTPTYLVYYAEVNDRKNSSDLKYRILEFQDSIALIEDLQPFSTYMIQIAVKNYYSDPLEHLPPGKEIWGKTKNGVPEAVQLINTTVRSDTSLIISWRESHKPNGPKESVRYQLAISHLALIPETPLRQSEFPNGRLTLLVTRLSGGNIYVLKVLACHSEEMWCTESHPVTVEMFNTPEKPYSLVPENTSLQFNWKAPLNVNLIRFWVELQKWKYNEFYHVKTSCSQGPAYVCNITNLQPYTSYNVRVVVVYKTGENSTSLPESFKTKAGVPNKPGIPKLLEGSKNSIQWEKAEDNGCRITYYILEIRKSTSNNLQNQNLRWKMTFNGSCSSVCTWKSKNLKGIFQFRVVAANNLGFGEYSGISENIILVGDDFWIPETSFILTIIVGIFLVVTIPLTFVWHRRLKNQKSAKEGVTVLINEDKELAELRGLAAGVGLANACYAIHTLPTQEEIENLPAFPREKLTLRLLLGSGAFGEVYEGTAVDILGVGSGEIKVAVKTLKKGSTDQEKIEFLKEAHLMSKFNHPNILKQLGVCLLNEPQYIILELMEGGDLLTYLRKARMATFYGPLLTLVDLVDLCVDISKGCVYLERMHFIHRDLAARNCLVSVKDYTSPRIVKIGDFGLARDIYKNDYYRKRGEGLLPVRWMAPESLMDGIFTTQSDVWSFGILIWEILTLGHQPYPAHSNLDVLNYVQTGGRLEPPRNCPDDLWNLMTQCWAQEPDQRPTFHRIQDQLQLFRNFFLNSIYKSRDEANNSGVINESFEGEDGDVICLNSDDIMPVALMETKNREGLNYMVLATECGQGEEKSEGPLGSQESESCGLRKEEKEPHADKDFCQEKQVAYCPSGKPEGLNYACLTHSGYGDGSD
Experimental: as §1
In a final reaction volume of 25 μl, Ros (h) (5-10 mU) is incubated with 8 mM MOPS pH 7.0, 0.2 mM EDTA, 10 mM MnCl2, 250 μM KKKSPGEYVNIEFG (SEQ ID NO:207), 10 mM MgAcetate and [gamma-33P-ATP] (specific activity approx. 500 cpm/pmol, concentration as required). The reaction is initiated by the addition of the MgATP mix. After incubation for 40 minutes at room temperature, the reaction is stopped by the addition of 5 μl of a 3% phosphoric acid solution. […]

SMILES	effect on protein synthesis [1]	remaining activity at 2.5 µM [2]	remaining activity at 2.5 µM [3]	remaining activity at 2.5 µM [4]	remaining activity at 2.5 µM [5]	remaining activity at 2.5 µM [6]
CN1CCCC1CCNC(=O)c1cn2c3c(c(N4CCC(c5cnccn5)C4)c(F)cc3c1=O)Oc1cc3ccccc3cc1-2 (stereo not drawn) [Compound A-1]	no measureable effect	95%	96%	78%	91%	115%
CC(=O)N1CCN(c2ccc3c(=O)c(C(=O)NCCN4CCCC4)c4n(C)c5ccccc5n4c3n2)CC1 [Compound B-1]	no measureable effect	102%	108%	106%	103%	113%
